The NIST ThermoML archive (doi:10.1021/acs.jced.5b00288)
“And” between values parts separate entries of the source, which are not always exact repeats. Equal entries are not always repeated.

Assay: excess molar enthalpy (molar enthalpy of mixing); xn = mol fraction of the nth substance listed
Details: 1060 K, 101 kPa, Liquid, Calvet calorimetry

[I][La]([I])[I] [lanthanum triiodide] + [I-].[K+]
Details | excess molar enthalpy
x1 = 0.048 | -0.464 kcal/mol
x1 = 0.1 | -0.973 kcal/mol
x1 = 0.152 | -1.53 kcal/mol
x1 = 0.199 | -1.64 kcal/mol and -1.93 kcal/mol
x1 = 0.246 | -2.13 kcal/mol
x1 = 0.25 | -1.76 kcal/mol
x1 = 0.304 | -1.79 kcal/mol
x1 = 0.348 | -1.89 kcal/mol
x1 = 0.354 | -2.3 kcal/mol
x1 = 0.398 | -1.93 kcal/mol

[I][La]([I])[I] [lanthanum triiodide] + [I-].[Na+]
Details | excess molar enthalpy [kcal/mol]
x1 = 0.0482 | -0.189
x1 = 0.0991 | -0.415
x1 = 0.1503 | -0.462
x1 = 0.2 | -0.678
x1 = 0.2477 | -0.549
x1 = 0.296 | -0.821
x1 = 0.3412 | -0.655
x1 = 0.3968 | -0.69
x1 = 0.3984 | -0.763
x1 = 0.4454 | -0.683
x1 = 0.4931 | -0.497
x1 = 0.4966 | -0.576
x1 = 0.5392 | -0.605
